In patent publication US20260199497A1, “GLUCOCORTICOID RECEPTOR AGONIST AND CONJUGATE THEREOF” (priority 2023, published 2026):

Tests used:
Type in all cases: cell-based
[1] = tested on: mouse B cells; assay: In vitro inhibition of the proliferation of mouse B cells by the glucocorticoid; details: 4 days; for in-vitro inhibitory activity on the proliferation of mouse B cells: LPS 5 μg/ml, ranking of the compounds; for IC50: B-cell, 96 h, LPS 5 μg/ml stimulated mouse spleen B cells, live cells by flow cytometry
Method: According to instructions of the EasySEP mouse panB cell sorting kit (Stemcell/1984/1×100e9 cells), B cells were isolated from mouse spleen cells. After obtaining the B cells, they were resuspended in complete medium (1640+10% FBS+50 uM β-mercaptoethanol), and added to a 96-well cell culture plate at 1E5 cells/100 μL per well. 4×LPS (20 μg/ml) was prepared, and add to the plated cells at 50 μL per well, with a final concentration of 5 μg/ml. The glucocorticoid was diluted with complete medium in a 5-fold gradient, starting at a final concentration of 20 nM, and added to the plated cells at 50 μL per well. The cells were incubated in a 37° C. cell culture incubator for 4 days. Then PI was added to the cells for dead cell staining, and the number of live cells was detected by flow cytometry. The cell viability was calculated using the number of live cells in the untreated wells as the denominator. The cell viability values was imported into the GraphPad Prism 8 software to calculate IC50. The structure of the comparative compound 1 is as follows: […]

[2] = biological target: T1, glucocorticoid receptor (Homo sapiens, UniProt P04150); assay: In vitro activation activity of the glucocorticoid on the glucocorticoid receptor in Hela-MMTV luciferase reporter cells; details: 48 hours; for EC50: Hela-MMTV luciferase reporter cells; for in vitro activation activity on the glucocorticoid receptor in the cells: Hela-MMTV cells, compared with comparative compound 1
T1 sequence (P04150 1-777): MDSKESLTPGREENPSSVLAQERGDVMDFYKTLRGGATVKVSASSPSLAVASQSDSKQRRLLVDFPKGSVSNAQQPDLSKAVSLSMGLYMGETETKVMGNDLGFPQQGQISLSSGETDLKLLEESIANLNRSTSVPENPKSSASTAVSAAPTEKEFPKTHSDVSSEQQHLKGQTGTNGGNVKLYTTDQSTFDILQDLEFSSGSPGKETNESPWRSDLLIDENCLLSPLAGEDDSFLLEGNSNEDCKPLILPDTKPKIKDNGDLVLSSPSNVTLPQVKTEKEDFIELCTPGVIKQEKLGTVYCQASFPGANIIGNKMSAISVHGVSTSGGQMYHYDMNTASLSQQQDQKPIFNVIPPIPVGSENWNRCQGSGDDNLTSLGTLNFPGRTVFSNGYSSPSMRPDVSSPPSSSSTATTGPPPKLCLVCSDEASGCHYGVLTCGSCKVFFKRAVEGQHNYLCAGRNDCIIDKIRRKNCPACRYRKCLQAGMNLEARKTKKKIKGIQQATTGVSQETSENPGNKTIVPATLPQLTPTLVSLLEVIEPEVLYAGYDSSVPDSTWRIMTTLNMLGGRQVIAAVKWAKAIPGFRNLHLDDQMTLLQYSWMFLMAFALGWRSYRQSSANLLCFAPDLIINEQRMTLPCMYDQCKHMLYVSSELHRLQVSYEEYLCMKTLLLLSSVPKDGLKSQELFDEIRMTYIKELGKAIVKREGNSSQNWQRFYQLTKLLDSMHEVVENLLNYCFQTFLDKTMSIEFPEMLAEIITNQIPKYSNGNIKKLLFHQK
Method: The activation activity of the glucocorticoid on glucocorticoid receptor was tested in the constructed Hela-MMTV luciferase reporter system cells. Adherent Hela-MMTV cells were digested using a Trypsin-EDTA (0.25%) solution, counted, and the cells in a required number were resuspended in complete medium (1640+10% FBS). The cells were then plated in a 96-well cell culture plate at 10,000 cells/100 μl. The glucocorticoid was diluted in complete medium, starting at a final concentration of 75 nM, followed by 5-fold gradient dilution, and was added to the plated cells at 100 μl per well. The cells were incubated in a cell culture incubator at 37° C. for 48 hours. Then Bio-Lite luciferase assay reagent (Vazyme DD1201-03) was added to the cells at 20 μl per well, followed by homogeneously shaking for 10 minutes, and luminescence readings were obtained using a microplate reader. The data were imported into GraphPad Prism 8 software to calculate the EC50 value.

[3] = biological target: T2, glucocorticoid receptor (Homo sapiens, UniProt P04150); assay: GRE reporter gene test (Experiment Example 2), HEK293T cells transfected with pGL4.35 and p-Bind GR Vector; details: for EC50: GRE reporter gene, HEK293T cells, 18-20 h incubation; for Emax: HEK-293T
T2 sequence (P04150 524-777 limits assumed): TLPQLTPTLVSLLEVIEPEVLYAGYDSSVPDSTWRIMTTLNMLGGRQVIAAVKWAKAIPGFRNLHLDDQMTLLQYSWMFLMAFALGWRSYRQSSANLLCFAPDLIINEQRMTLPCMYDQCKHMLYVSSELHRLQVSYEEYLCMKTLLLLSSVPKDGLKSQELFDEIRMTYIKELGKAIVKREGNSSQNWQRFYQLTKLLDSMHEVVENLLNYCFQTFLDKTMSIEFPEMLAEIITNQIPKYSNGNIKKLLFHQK
Method: The compound of the present invention to be tested was formulated into a 1 mM solution with DMSO, and then subjected to 4-fold dilution at 10 concentration points using DMSO to obtain a 1000× mother liquor, with a final test concentration of 0.0000038-1 μM.
(§1) HEK293T cells (ATCC) were plated in a 100 mm culture dish at a density of 6*10^6 cells/culture dish, and cultured for 16 h under the conditions of 37° C. and 5% CO2. Plasmids (pGL4.35 [luc2P/9XGAL4 UAS/Hygro], p-Bind GR Vector, Promega) and Lipofectamine® 3000 (Invitrogen) were mixed, added into the culture dish, and then incubated for 5-6 h under the conditions of 37° C. and 5% CO2.
In a 384-well plate (PerkinElmer), 25 nL of the compound mother liquor was added, and then HEK293T cells transfected with plasmids were added at a density of 18000 cells/well (25 μL). The cells were incubated for 18-20 h under the conditions of 37° C. and 5% CO2.
After the incubation was ended, 25 μL of britelite plus luciferase assay reagent (PerkinElmer) was added, and then reading was performed using an Envision 2105 multimode reader (PerkinElmer).
(§2) The activity was calculated using the following formula, % activity=100*(signal of compound well−average signal of negative control well)/(average signal of positive control well−average signal of negative control well). […] Fitting calculation of EC50 was performed on % activity and the logarithmic concentration of the compound using Graphpad 8.0, Y=Bottom+(Top−Bottom)/(1+10^((Log EC50−X)*HillSlope)), wherein Y is % activity, and X is the logarithmic concentration of the compound.

[4] = biological target: T2, glucocorticoid receptor; assay: GRE reporter gene test (Experiment Example 1), HEK293T cells transfected with pGL4.35 and p-Bind GR Vector; details: for EC50: GRE reporter gene, HEK293T cells, 18-20 h incubation; for Emax: HEK-293T; for maximum agonistic effect (Emax): compared with dexamethasone, transfected HEK293T cells
Method: The compound of the present invention to be tested was formulated into a 10 mM solution with DMSO, and then subjected to 4-fold dilution at 10 concentration points using DMSO to obtain a 1000× mother liquor, with a final test concentration of 0.000038-10 μM.
as §1
In a 384-well plate (PerkinElmer), 25 nL of the compound mother liquor was added, and then HEK293T cells transfected with plasmids were added at a density of 18000 cells/well. The cells were incubated for 18-20 h under the conditions of 37° C. and 5% CO2.
After the incubation was ended, 25 μL of britelite plus luciferase assay reagent (PerkinElmer) was added, and then reading was performed using an Envision 2105 multiplate reader (PerkinElmer).
as §2

| SMILES | EC50 [2] [pM] | Emax [3] [%] | IC50 [1] [pM] | EC50 [4] [pM] | Emax ([4]; read-out: Emax) [%] | maximum agonistic effect (Emax) [4] | further results |
| --- | --- | --- | --- | --- | --- | --- | --- |
| C[C@H]1C[C@@]2(C)[C@@H](C[C@H]3O[C@@H](c4ccc(Cc5cccc(N)c5)cc4)O[C@]32C(=O)CO)[C@@H]2CCC3=CC(=O)C=C[C@]3(C)[C@H]21 [comparative compound 1, reference compound] | 956 |  |  |  |  |  | in-vitro inhibitory activity on the proliferation of mouse B cells [1]: relatively the weakest inhibitory activity |
| C[C@H](O)CC(=O)O[C@]1(C(=O)SCF)[C@H](C)C[C@H]2[C@@H]3C[C@H](F)C4=CC(=O)C=C[C@]4(C)[C@@]3(F)[C@@H](O)C[C@@]21C [D-15, (6S,8S,9R,10S,11S,13S,14S,16R,17R)-6,9-difluoro-17-(((fluoromethyl)thio)carbonyl)-11-hydroxy-10,13,16-trimethyl-3-oxo-6,7,8,9,10,11,12,13,14,15,16,17-dodecahydro-3H-cyclopenta[a]phenanthren-17-yl (S)-3-hydroxybutyrate] | 74 | 102 |  |  |  |  | EC50 [3]: 1400 pM |
| C[C@]12C=CC(=O)C=C1[C@@H](F)C[C@H]1[C@@H]3CC[C@](OC(=O)c4ccc(F)c(N)c4)(C(=O)SCF)[C@@]3(C)C[C@H](O)[C@@]12F [A-1] | 9.7 |  | 32 | 200 | 102 | superior to dexamethasone | in-vitro inhibitory activity on the proliferation of mouse B cells [1]: most strongest inhibitory activity; in vitro activation activity on the glucocorticoid receptor in the cells [2]: superior to comparative compound 1 |
| C[C@@H]1C[C@H]2[C@@H]3CCC4=CC(=O)C=C[C@]4(C)[C@@]3(F)[C@@H](O)C[C@]2(C)[C@@]1(O)C(=O)CO [Dexamethasone, reference compound] |  | 98.3 |  |  |  |  | Emax [4]: 100% |
| C[C@@H]1C[C@H]2[C@@H]3C[C@H](F)C4=CC(=O)C=C[C@]4(C)[C@@]3(F)[C@@H](O)C[C@]2(C)[C@@]1(OC(=O)c1cc(N)co1)C(=O)SCF [F-2, (6S,8S,9R,10S,11S,13S,14S,16R,17R)-6,9-difluoro-17-(((fluoromethyl)thio)carbonyl)-11-hydroxy-10,13,16-trimethyl-3-oxo-6,7,8,9,10,11,12,13,14,15,16,17-dodecahydro-3H-cyclopenta[a]phenanthren-17-yl 4-aminofuran-2-carboxylate] |  |  |  | 1200 | 125 | superior to dexamethasone |  |
| C[C@H]1C[C@@]2(C)[C@@H](C[C@H]3O[C@@H](c4ccc(Cc5cccc(N)c5)cc4)O[C@]32C(=O)CO)[C@@H]2CCC3=CC(=O)C=C[C@]3(C)[C@H]21 [Comparative example 1] |  |  | 825 |  |  |  |  |
| C[C@@H]1C[C@H]2[C@@H]3C[C@H](F)C4=CC(=O)C=C[C@]4(C)[C@@]3(F)[C@@H](O)C[C@]2(C)[C@@]1(OC(=O)c1ccccc1)C(=O)SCF [H-1, (6S,8S,9R,10S,11S,13S,14S,16R,17R)-6,9-difluoro-17-((fluoromethyl)thio)carbonyl)-11-hydroxy-10,13,16-trimethyl-3-oxo-6,7,8,9,10,11,12,13,14,15,16,17-dodecahydro-3H-cyclopenta[a]phenanthren-17-yl benzoate] |  |  |  | 180 | 110 | superior to dexamethasone |  |
| C[C@@H]1C[C@H]2[C@@H]3C[C@H](F)C4=CC(=O)C=C[C@]4(C)[C@@]3(F)[C@@H](O)C[C@]2(C)[C@@]1(OC(=O)CCO)C(=O)SCF [D-5] | 154 | 132 | 312 |  |  |  | in vitro activation activity on the glucocorticoid receptor in the cells [2]: superior to comparative compound 1; EC50 [3]: 1300 pM; maximum agonistic activity (Emax) ([3]; compared with dexamethasone, transfected HEK293T cells): superior to dexamethasone |
